Source: patent US5334619A, “Inhibition of postharvest fruit decay by 2-nonanone” (priority 1993, dated 1994)

Assays:
[1] = system: composite spore suspension of A. alternata, B. cinerea and C. gloeosporioides on strawberries; test: Fungal growth on inoculated strawberry fruit exposed to volatile compounds; details: 0.4 μl/ml vapor, 10 days, 10° C.; mean, 0 = no fungi present, 3 = fruit completely covered by fungal mycelia
Description: (§1) Fungal cultures of A. alternata and B. cinerea were obtained from the Agricultural Research Service, NRRL Culture Collection in Peoria, Ill. […] An isolate of C. gloeosporioides pathogenic on blueberries was obtained from the USDA/ARS Cranberry and Blueberry Research Center, Chatsworth, N.J. All cultures were maintained at 24° C. and 95% relative humidity on V-8 juice agar supplemented with 0.3% CaCO3 and adjusted to pH 5.8. Spores of each fungus were removed from sporulating cultures by carefully brushing the surface of the media with a glass rod and suspending the spores in sterile water. The concentrations of spores in the suspensions were adjusted to concentrations of 10^6 to 10^7 spores/ml. These suspensions were mixed together to form a composite suspension which was used to inoculate all the fruit in a given experiment.
(§2) Untreated red raspberries (cv. `Heritage`) and strawberries (cv. `Ozark Beauty`) were harvested and used the same day. Berries were selected on the basis of uniform size, color, firmness, and absence of evidence of defects or diseases.
(§3) A bioassay system was developed to test the effects of the volatile compounds on fungal growth both on intact fruit and on V-8 juice medium. The apparatus consisted of 75 ml glass jars into which either fruit or sterilized V-8 juice medium (10 ml) were added. […]

C. gloeosporioides [2] = test: Treatment of isolated cultures with 2-nonanone vapor; assay type: cell-based, Colletotrichum gloeosporioides; details: 7 days, 10° C., 0 = no growth, 4 = media completely covered
Description: as §1
(§4) A bioassay system was developed to test the effects of the volatile compounds on fungal growth both on intact fruit and on V-8 juice medium. The apparatus consisted of 75 ml glass jars into which either fruit or sterilized V-8 juice medium (10 ml) were added. These jars were placed in 275 ml airtight glass jars with aluminum foil cap liners. The bottom of each 275 ml jar was fitted with a 5.5 cm filter paper disk (Whatman No. 1) for application of the appropriate amount of test compound. The total gas headspace in the larger jars after the addition of all components was 250 ml.
(§5) The fungi assayed against included B. cinerea, C. gloeosporioides and A. alternata. The compound was bioassayed as a volatile using the apparatus described in Example 1 by placing 7 mm diameter plugs of mycelia from actively-growing 1 week-old cultures on V-8 juice media in the 75 ml jars, with the appropriate amount (0, 5, 10, 25 or 100 μl ) of compound applied to the filter paper on the bottom of the larger jar. Assuming complete volatilization, these amounts would produce a nonanone concentration within the headspace of 0.02, 0.04, 0.10, and 0.40 μL/ml, respectively. The sealed jars were then placed in a growth chamber in the dark at 10° C. for 7 days. Due to growth of fungi limited to the plug in many cases and the difficulty of accurately measuring the fungal growth in the jars, a rating system was developed as follows: 0, no growth of fungi, including on plug; 1, growth on plug only; 2, small amount of fungal growth on medium; 3, most of medium covered with fungal mycelia; and 4, all of medium covered. The treatment was replicated three times and the data were treated by statistical analysis of variance.

rat = details: cited from earlier work
A. alternata [3] = test: Treatment of isolated cultures with 2-nonanone vapor; assay type: cell-based, Alternaria alternata; details: 7 days, 10° C., 0 = no growth, 4 = media completely covered
Description: as §1, §4, §5

[4] = system: red raspberries (cv. `Heritage`); test: Fruit damage rating of inoculated raspberry fruit exposed to volatile compounds; parameters: species or system Rubus idaeus L.; details: 0.4 μl/ml vapor, 10 days, 10° C.; mean, 0 = intact, undamaged fruit, 3 = whole fruit necrotic and watersoaked
Description: as §2, §4
(§6) Red raspberries and strawberries were rinsed with sterile distilled water and allowed to dry before inoculation. The fruit was sprayed with the spore suspension to runoff. Single red raspberries or strawberries were placed in the 75 ml jars, and 100 μl each of a single test compound was added to the filter paper on the bottom of a 275 ml jar. The 275 ml jar was then sealed. Fruit were kept at 10° C. in the dark for 10 days then rated for development of fungi and for damage to the fruit due to the treatments. […]

B. cinerea [5] = test: Treatment of isolated cultures with 2-nonanone vapor; assay type: cell-based, Botrytis cinerea; details: 7 days, 10° C., 0 = no growth, 4 = media completely covered
Description: as §1, §4, §5

[6] = system: strawberries (cv. `Ozark Beauty`); test: Fruit damage rating of inoculated strawberry fruit exposed to volatile compounds; parameters: species or system Fragaria ananassa, Duchesne; details: 0.4 μl/ml vapor, 10 days, 10° C.; mean, 0 = intact, undamaged fruit, 3 = whole fruit necrotic and watersoaked
Description: as §2, §4, §6

[7] = system: composite spore suspension of A. alternata, B. cinerea and C. gloeosporioides on red raspberries; test: Fungal growth on inoculated raspberry fruit exposed to volatile compounds; details: 0.4 μl/ml vapor, 10 days, 10° C.; mean, 0 = no fungi present, 3 = fruit completely covered by fungal mycelia
Description: as §1, §2, §3

A. alternata [8] = test: Radial growth of cultures with 2-nonanone in the growth medium; assay type: cell-based; details: Alternaria alternata, read-out: Fungal Growth (% of control), A. alternata
Description: as §1, with “experiment. 2-Nonanone was assayed as a medium component by adding an appropriate amount to cooled V-8 juice media in 9.0 cm plastic petri dishes. Experiments were initiated by placing 7 mm plugs of mycelia in the center of the petri dishes. As the cultures were nearly circular, the radii (from the inoculum plug to one typical point on the growing margin) of the cultures were measured and expressed as a percentage of the control. The treatment was replicated five times and the data were treated by analysis of variance.” for “experiment.”

C. gloeosporioides [9] = test: as above; assay type: cell-based; details: Colletotrichum gloeosporioides, read-out: Fungal Growth (% of control), C. gloeosporioides
Description: as §1, with “experiment. 2-Nonanone was assayed as a medium component by adding an appropriate amount to cooled V-8 juice media in 9.0 cm plastic petri dishes. Experiments were initiated by placing 7 mm plugs of mycelia in the center of the petri dishes. As the cultures were nearly circular, the radii (from the inoculum plug to one typical point on the growing margin) of the cultures were measured and expressed as a percentage of the control. The treatment was replicated five times and the data were treated by analysis of variance.” for “experiment.”

B. cinerea [10] = test: as above; assay type: cell-based; details: Botrytis cinerea, read-out: Fungal Growth (% of control), B. cinerea
Description: as §1, with “experiment. 2-Nonanone was assayed as a medium component by adding an appropriate amount to cooled V-8 juice media in 9.0 cm plastic petri dishes. Experiments were initiated by placing 7 mm plugs of mycelia in the center of the petri dishes. As the cultures were nearly circular, the radii (from the inoculum plug to one typical point on the growing margin) of the cultures were measured and expressed as a percentage of the control. The treatment was replicated five times and the data were treated by analysis of variance.” for “experiment.”

For `CCCCCCCC(C)=O` [2-Nonanone, 2-nonanone], the “Fungal Rating, Strawberry” value [1] was 0.0, the “Fungal Growth Rating, C. gloeosporioides” value (C. gloeosporioides [2]; vapor phase 0.02 μl/ml) was 2.0 and the “Fungal Growth Rating, C. gloeosporioides” value (C. gloeosporioides [2]; vapor phase 0.04 μl/ml) was 0.6. For the same molecule, the “Fungal Growth Rating, C. gloeosporioides” value (C. gloeosporioides [2]; vapor phase 0.10 μl/ml) was 0.0, the “Fungal Growth Rating, C. gloeosporioides” value (C. gloeosporioides [2]; vapor phase 0.40 μl/ml) was 0.0 and the “oral rat LD50” value (rat) was 3200 mg/kg. The “Fungal Growth Rating, A. alternata” value (A. alternata [3]; vapor phase 0.02 μl/ml) was 2.7, the “Fungal Growth Rating, A. alternata” value (A. alternata [3]; vapor phase 0.04 μl/ml) was 1.3 and the “Fungal Growth Rating, A. alternata” value (A. alternata [3]; vapor phase 0.10 μl/ml) was 0.0. For the same molecule, the “Fungal Growth Rating, A. alternata” value (A. alternata [3]; vapor phase 0.40 μl/ml) was 0.0, the “Fruit damage rating, Raspberry” value [4] was 2.0 and the “Fungal Growth Rating, B. cinerea” value (B. cinerea [5]; vapor phase 0.02 μl/ml) was 1.0. The “Fungal Growth Rating, B. cinerea” value (B. cinerea [5]; vapor phase 0.04 μl/ml) was 0.0, the “Fungal Growth Rating, B. cinerea” value (B. cinerea [5]; vapor phase 0.10 μl/ml) was 0.0 and the “Fungal Growth Rating, B. cinerea” value (B. cinerea [5]; vapor phase 0.40 μl/ml) was 0.0. The “Fruit damage rating, Strawberry” value [6] was 1.7, the “Fungal Rating, Raspberry” value [7] was 0.0 and the activity at 0.01 % (A. alternata [8]; 0.01% in V-8 juice medium) was 85.2%. It also gave an activity at 0.1 % (A. alternata [8]; 0.10% in V-8 juice medium) of 48.7%, an activity at 1 % (A. alternata [8]; 1.00% in V-8 juice medium) of 0% and an activity at 0.01 % (C. gloeosporioides [9]; 0.01% in V-8 juice medium) of 100%. The activity at 0.1 % (C. gloeosporioides [9]; 0.10% in V-8 juice medium) was 95.7%, the activity at 1 % (C. gloeosporioides [9]; 1.00% in V-8 juice medium) was 0% and the activity at 0.01 % (B. cinerea [10]; 0.01% in V-8 juice medium) was 100%. The activity at 0.1 % (B. cinerea [10]; 0.10% in V-8 juice medium) was 83% and the activity at 1 % (B. cinerea [10]; 1.00% in V-8 juice medium) was 0%.
